Where two headings read alike, the source gives them in different places.
Legend:
[1] = tested on: granuloma formed around cotton implant; assay: Cotton implant granuloma test; format: in vivo, rats; details: 72 hours
Description: (B) To a group of 10 rats of about 200-225 g is implanted at the dorsal zone, subcutaneously, balled cotton (about 9 mg) impregnated and afterwards dried with a solution of medicamentous substance and which amount is known.
We use as reference Dexamethasone and controls without medicament.
After 72 hours, once the animal is sacrificed, the granuloma formed around the implant is extracted and weighed, after drying at 100° C.
The antiinflammatory reduces the weight of the granuloma.

[2] = tested on: acetic acid induced pullings; assay: Writhing syndrome test (acetic acid); format: in vivo, mice; details: 10 mg/kg oral; for inhibition at 10 mg/kg: Mus musculus, po, read-out: % INHIB. (pullings)
Description: Irritant substance: acetic acid at 0.5% injected via intraperitoneal.
Foundation of the method consists in provoking a dolorous syndrome by pulling and torsion of the stomach and the hind legs of the animals.
These pullings or stretchings are calculated during a certain time, using it as the measure of the provoked ache.
Mice of about 22 g by weight were used, animals were left under abstinence during 24 hours before carrying out the test.
Mice were previously selected as to each individual response to the dolorous stimulus provoked by an intraperitoneal injection of 0.2 ml of an acetic acid aqueous solution at the 0.5%. Valid animals for realizing the test are those which respond within a margin of 15-35 pullings in about 5 to 15 minutes after the injection. The remaining animals are not useful.
Medication is realized via oral with the help of an esophageal cannula.
White lot: Administration of 0.1 ml of CMC 1% for each 10 g of corporal weight.
2,4,6-triiodophenol lot: Administration of 10 mg/kg of the product, suspended in CMC of 1%.
Aspirin-Lysin lot (Solusprin): Administration of 500 mg/kg aspirin, dissolved at 1%.
After medication, one has to wait 20 minutes for injecting 0.2 ml acetic acid of 0.5% via intraperitoneal, calculating the number of pullings during 5 minutes. […]
The test was carried out in 9 mice in each lot.

[3] = tested on: Carrageenin leg oedema; assay: Carrageenin leg oedema test; format: in vivo, white rats; details: for inhibition at 5 mg/kg: Rattus norvegicus, 5 mg/kg oral
Description: (A) The antiinflammatory action is shown in white rats, of a weight of about 200-225 g, having provoked in these animals the leg oedema by means of an injection in the sole of the foot of 0.1 ml of a 1% Carrageenin solution.
One control group of ten animals, another the same medicated with indomethacin via oral at 30 mg/kg, in suspension in a carboxymethylcellulose solution, another group of ten rats, medicated with triiodophenol in oral solution at 5 mg/kg, another group medicated with triioodophenol at 1 mg/kg, injected via intramuscular and another group medicated with triiodophenol at 0.5 mg/kg via intramuscular. All medications are administered simultaneously to the formation of Edema.
The volume of the same is measured at 0 hours, 3 hours, 4 hours, 5 hours and 6 hours with a mercury Plestimograph.

[4] = tested on: cardiac contractility; assay: Cardiac contractility in cardiovascular patients (inotropic effect); format: in vivo; details: 30 mg/day intramuscular
Description: The technology used to show the hemodynamic changes was of the non-invasivetype, as in this way experiments can be repeated and are completely innoxious for the patient. Of all the non-invasive methods of diagnosis we selected the most reliable of actual conditions, which is the method of ultrasounds (echo and Doppler's effects). The bidimensional echocardiography in real time, combined with pulsatile Doppler and the bidimensional vascular echography combined with pulsatile Doppler hemodynamic, are actually the two most reliable non-invasive techniques for the study of the anatomic changes and macroscopic hemodynamics with regard to the cardiovascular apparatus. That's why we used for the study of the clinical effects of the 2,4,6-triiodophenol an echo-Doppler trade mark ATL (Mark V), being the transmission frequency of 3 MHz, as well as a continuous Doppler trade mark SONICAID of 4 and 8 MHz.
Patients were divided in four statistically acceptable groups (50 in each group), comparing the results obtained with this medicament before, during and after the treatment.
Methodologically there are practiced echographical cuts in real time of the heart, big vases, supra-aortic trunks, abdominal aorta, portal and caval systems and iliac and femoral arteries, obtaining fluxmetric samples Doppler in all the mentioned cardiac cavities and blood vessels to study the sense of the flow, outflow (stream) or volume of flow and the hemodynamic features of the sanguineous flow.
(§1) Hereunder we expose the clinical results obtained after the administration during three months of the 2,4,6-triiodophenol in 200 cardiovascular patients.
(§2) Sick persons were divided in 4 groups; (1) 50 patients with cerebral vascular insufficiency, (2) 50 patients with coronary insufficiency, (3) 50 patients with hepatic insufficiency and (4) 50 patients with peripheral vascular insufficiency of the lower extremities. All these persons received an intramuscular administration, a dosage of 30 mg/day of 2,4,6-triiodophenol, carrying out controls at the first, second and third month of all angiohemodynamic parameters, supposing a total of 600 controls (150 per each group after the three months).

[5] = Effects by parenteral administration compared with classical antirheumatics; format: in vivo; details: 1 mg/kg
[6] = tested on: fat in the blood; assay: Fat in the blood in cardiovascular patients (hypocholesterinemic action); format: in vivo; details: 3rd month, 30 mg/day intramuscular
Description: as §1, §2

[7] = tested on: sensation of pain on hot plate; assay: Hot plate test at 56° C; format: in vivo, mice
Description: (A) To control analgesic activity we use mice of about 25 g by weight, in groups of ten mice, subjected to the test of the hot plate at 56° C.
Animals receive a medicamentous injection of 0.1 ml of solubilized aspirin with sodium bicarbonate, or of solubilized triiodophenol at pH 9'5.
Controls receive physiologic serum.
The time in which the animals indicate sensation of pain is measured with a chronometer.
In the hereunder table the results testing animals, 15 min. and 30 min. after the medication. Average values are taken of each group.

[8] = Tolerability after three months administration in 200 cardiovascular patients; format: in vivo
Description: as §1, §2

[9] = Solubility; format: physicochemical

Compound: Oc1c(I)cc(I)cc1I [2,4,6-triiodophenol]
- % Reduction of the granuloma (Average) ([1]; 100 micrograms per implant): 19%
- % Reduction of the granuloma (Average) ([1]; 200 micrograms per implant): 28%
- % Reduction of the granuloma (Average) ([1]; 400 micrograms per implant): 44%
- Total No. pullings ([2]; 20'): 14
- Total No. pullings ([2]; 30'): 9
- Total No. pullings ([2]; 100'): 9
- inhibition at 10 mg/kg ([2]; 20'): 88.4%
- inhibition at 10 mg/kg ([2]; 30'): 83.9%
- inhibition at 10 mg/kg ([2]; 100'): 86.1%
- % inhibition (oedema) ([3]; 0,5 mg/kg inj. (intramuscular), 3 hours): 20%
- % inhibition (oedema) ([3]; 0,5 mg/kg inj. (intramuscular), 4 hours): 42%
- % inhibition (oedema) ([3]; 0,5 mg/kg inj. (intramuscular), 5 hours): 49%
- % inhibition (oedema) ([3]; 0,5 mg/kg inj. (intramuscular), 6 hours): 60%
- % inhibition (oedema) ([3]; 1 mg/kg inj. (intramuscular), 4 hours): 66%
- % inhibition (oedema) ([3]; 1 mg/kg inj. (intramuscular), 5 hours): 75%
- % inhibition (oedema) ([3]; 1 mg/kg inj. (intramuscular), 6 hours): 82%
- inhibition at 5 mg/kg ([3]; 3 hours): 43%
- inhibition at 5 mg/kg ([3]; 4 hours): 50%
- inhibition at 5 mg/kg ([3]; 5 hours): 57%
- inhibition at 5 mg/kg ([3]; 6 hours): 65%
- Ejection fraction, variation (Δ %) ([4]; 1st month): -9,1%
- Ejection volume, variation (Δ %) ([4]; 1st month): -9%
- Telediastolic volume, variation (Δ %) ([4]; 1st month): -3%
- Telesystolic volume, variation (Δ %) ([4]; 1st month): +8%
- Ejection fraction, variation (Δ %) ([4]; 2nd month): -8,8%
- Ejection volume, variation (Δ %) ([4]; 2nd month): -8,4%
- Telediastolic volume, variation (Δ %) ([4]; 2nd month): -5%
- Telesystolic volume, variation (Δ %) ([4]; 2nd month): +11%
- Ejection fraction, variation (Δ %) ([4]; 3rd month): -8,6%
- Ejection volume, variation (Δ %) ([4]; 3rd month): -8%
- Telediastolic volume, variation (Δ %) ([4]; 3rd month): -6%
- Telesystolic volume, variation (Δ %) ([4]; 3rd month): +13%
- Effects compared with aspirin and indomethacin at therapeutic dosages [5]: comparable and even higher
- Cholesterol, variation [6]: -15%
- Triglycerides, variation [6]: -12%
- Time to sensation of pain ([7]; 1 mg/kg injection, 15 minutes): 6,5 sec.
- Time to sensation of pain ([7]; 1 mg/kg injection, 30 minutes): 6,7 sec.
- Time to sensation of pain ([7]; 10 mg/kg injection, 15 minutes): 11,7 sec.
- Time to sensation of pain ([7]; 10 mg/kg injection, 30 minutes): 11,8 sec.
- Thyroid function ([8]; iodine concentration of the product): does not alter the thyroid function
- Toxic effect or secondary effects of clinical importance ([8]; three months administration, 30 mg/day intramuscular): does not produce any toxic effect or secondary effects of clinical importance in none of the patients
- Solubility in alkali solutions ([9]; alkali solutions): soluble
- Solubility in chloroform and dichloromethane ([9]; chloroform and dichloromethane): very soluble
- Solubility in organic dissolvents ([9]; ethylic and propylic alcohols, acetone and sulfuric ether): somewhat soluble
- Solubility in water ([9]; water): not very soluble
